Source: ChEMBL document CHEMBL5608163, “Structure modification of anoplin for fighting resistant bacteria” (Eur J Med Chem, 2024)
≈ marks a conversion by molar mass, not a printed value. Square brackets hold non-standard residues; d marks the D form. Peptide text beside a SMILES is read from it. NMeR = CN[C@@H](CCCNC(=N)N)C(=O)O; NMeI = CC[C@H](C)[C@H](NC)C(=O)O; NMeL = CN[C@@H](CC(C)C)C(=O)O; NMeK = CN[C@@H](CCCCN)C(=O)O

Key:
Enterococcus faecium = test: Antibacterial activity against vancomycin resistant Enterococcus faecium ATCC 700221 assessed as inhibition of bacterial growth incubated for 48 hrs by CLSI-based broth microdilution assay; assay type: functional
[1] = Hemolytic activity in human RBC assessed as hemolysis measured after 24 hrs; assay type: toxicity, cell-based, Erythrocyte; conditions: red blood cells
Staphylococcus aureus [2] = test: Antibacterial activity against methicillin-resistant Staphylococcus aureus ATCC 33591 assessed as reduction in bacterial growth incubated for 18 hrs by agar dilution method; assay type: functional
Escherichia coli = test: Antibacterial activity against Escherichia coli ATCC 25922 assessed as reduction in bacterial growth incubated for 18 hrs by Mueller-Hinton Broth based microdilution assay; assay type: functional
Pseudomonas aeruginosa = test: Antimicrobial activity against Pseudomonas aeruginosa ATCC 27853 assessed as reduction in microbial growth incubated for 18 hrs by Mueller-Hinton Broth based microdilution assay; assay type: functional
Klebsiella pneumoniae = test: Antimicrobial activity against Klebsiella pneumoniae ATCC 700603 assessed as reduction in microbial growth incubated for 18 hrs by Mueller-Hinton Broth based microdilution assay; assay type: functional
Bacillus subtilis = test: Antimicrobial activity against Bacillus subtilis ATCC 23857 assessed as reduction in microbial growth incubated for 18 hrs by Mueller-Hinton Broth based microdilution assay; assay type: functional
Staphylococcus aureus [3] = test: Antibacterial activity against Staphylococcus aureus ATCC 25923 assessed as reduction in bacterial growth incubated for 18 hrs by Mueller-Hinton Broth based microdilution assay; assay type: functional

SMILES | MIC (Enterococcus faecium) [µM] | HC50 at 24 h [1] [µM] | MIC (Staphylococcus aureus [2]) [µM] | MIC (Escherichia coli) [µM] | MIC (Pseudomonas aeruginosa) [µM] | MIC (Klebsiella pneumoniae) [µM] | MIC (Bacillus subtilis) [µM] | MIC (Staphylococcus aureus [3]) [µM]
CC[C@H](C)[C@H](NC(=O)[C@H](CCCCN)NC(=O)[C@H](CCCCN)NC(=O)[C@H](CC(C)C)NC(=O)[C@H](CC(C)C)NC(=O)CN)C(=O)N[C@@H](CCCCN)C(=O)N[C@@H](Cc1c[nH]c2ccccc12)C(=O)N[C@@H](CC(C)C)C(=O)N[C@@H](CC(C)C)C(N)=O (H-GLLKKIKWLL-NH2) | 22.1 (≈ 26.8 µg/mL) | 152 | 28.4 (≈ 34.4 µg/mL) | – | – | – | – | –
CC[C@H](C)[C@H](NC(=O)[C@H](CCCNC(=N)N)NC(=O)[C@H](CCCCN)NC(=O)[C@H](CC(C)C)NC(=O)[C@H](CC(C)C)NC(=O)CN)C(=O)N[C@@H](CCCCN)C(=O)N[C@H](C(=O)N[C@@H](CC(C)C)C(=O)N(C)[C@@H](CC(C)C)C(N)=O)[C@@H](C)O (H-GLLKRIKTL[NMeL]-NH2) | – | – | – | > 128 | 32 | > 128 | 64 | > 128
CC[C@H](C)[C@H](NC(=O)[C@H](CCCNC(=N)N)NC(=O)[C@H](CCCCN)NC(=O)[C@H](CC(C)C)NC(=O)[C@H](CC(C)C)NC(=O)CN)C(=O)N[C@@H](CCCCN)C(=O)N[C@H](C(=O)N(C)[C@@H](CC(C)C)C(=O)N[C@@H](CC(C)C)C(N)=O)[C@@H](C)O (H-GLLKRIKT[NMeL]L-NH2) | – | – | – | > 128 | 28 | > 128 | 128 | > 128
CC[C@H](C)[C@H](NC(=O)[C@H](CCCNC(=N)N)NC(=O)[C@H](CCCCN)NC(=O)[C@H](CC(C)C)NC(=O)[C@H](CC(C)C)NC(=O)CN)C(=O)N(C)[C@@H](CCCCN)C(=O)N[C@H](C(=O)N[C@@H](CC(C)C)C(=O)N[C@@H](CC(C)C)C(N)=O)[C@@H](C)O (H-GLLKRI[NMeK]TLL-NH2) | – | – | – | > 128 | 128 | > 128 | 128 | > 128
CC[C@H](C)[C@@H](C(=O)N[C@@H](CCCCN)C(=O)N[C@H](C(=O)N[C@@H](CC(C)C)C(=O)N[C@@H](CC(C)C)C(N)=O)[C@@H](C)O)N(C)C(=O)[C@H](CCCNC(=N)N)NC(=O)[C@H](CCCCN)NC(=O)[C@H](CC(C)C)NC(=O)[C@H](CC(C)C)NC(=O)CN (H-GLLKR[NMeI]KTLL-NH2) | – | – | – | > 128 | > 128 | > 128 | 128 | > 128
CC[C@H](C)[C@H](NC(=O)[C@H](CCCNC(=N)N)N(C)C(=O)[C@H](CCCCN)NC(=O)[C@H](CC(C)C)NC(=O)[C@H](CC(C)C)NC(=O)CN)C(=O)N[C@@H](CCCCN)C(=O)N[C@H](C(=O)N[C@@H](CC(C)C)C(=O)N[C@@H](CC(C)C)C(N)=O)[C@@H](C)O (H-GLLK[NMeR]IKTLL-NH2) | – | – | – | > 128 | 128 | > 128 | 128 | > 128
CC[C@H](C)[C@H](NC(=O)[C@H](CCCNC(=N)N)NC(=O)[C@H](CCCCN)N(C)C(=O)[C@H](CC(C)C)NC(=O)[C@H](CC(C)C)NC(=O)CN)C(=O)N[C@@H](CCCCN)C(=O)N[C@H](C(=O)N[C@@H](CC(C)C)C(=O)N[C@@H](CC(C)C)C(N)=O)[C@@H](C)O (H-GLL[NMeK]RIKTLL-NH2) | – | – | – | > 128 | 64 | > 128 | 128 | > 128
CC[C@H](C)[C@H](NC(=O)[C@H](CCCNC(=N)N)NC(=O)[C@H](CCCCN)N(C)C(=O)[C@H](CC(C)C)NC(=O)[C@H](CC(C)C)NC(=O)CN)C(=O)N(C)[C@@H](CCCCN)C(=O)N[C@H](C(=O)N[C@@H](CC(C)C)C(=O)N[C@@H](CC(C)C)C(N)=O)[C@@H](C)O (H-GLL[NMeK]RI[NMeK]TLL-NH2) | – | – | – | > 128 | 128 | > 128 | > 128 | > 128
CC[C@H](C)[C@H](NC(=O)[C@H](CCCNC(=N)N)N(C)C(=O)[C@H](CCCCN)N(C)C(=O)[C@H](CC(C)C)NC(=O)[C@H](CC(C)C)NC(=O)CN)C(=O)N[C@@H](CCCCN)C(=O)N[C@H](C(=O)N[C@@H](CC(C)C)C(=O)N[C@@H](CC(C)C)C(N)=O)[C@@H](C)O (H-GLL[NMeK][NMeR]IKTLL-NH2) | – | – | – | > 128 | > 128 | > 128 | > 128 | > 128
